# Source: the supplement of paper PMC10307832
# Columns and labels:
# Experiment in all cases: relative viability (nuclei count vs DMSO), 5 days (fraction); higher = more cells survive
# AZD5582 + Foretinib = compound: C[C@@H](C(=O)N[C@@H](C1CCCCC1)C(=O)N2CCC[C@H]2C(=O)N[C@@H]3[C@@H](CC4=CC=CC=C34)OCC#CC#CCO[C@@H]5CC6=CC=CC=C6[C@@H]5NC(=O)[C@@H]7CCCN7C(=O)[C@H](C8CCCCC8)NC(=O)[C@H](C)NC)NC [AZD5582] + COc1cc2c(Oc3ccc(NC(=O)C4(C(=O)Nc5ccc(F)cc5)CC4)cc3F)ccnc2cc1OCCCN1CCOCC1 [Foretinib] (partner 0.25 µM)
# Method in brief: (§1)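 Lung cancer cell lines in 1536-well plates were dosed by pin tool the day after seeding, either with one drug alone or with a fixed anchor-drug dose plus five library-drug doses (not always all listed) in √10 steps. After 5 days, cells were fixed and their nuclei stained in one step (final 0.05% Triton X-100, 1% formaldehyde, 1 ug/ml Hoechst), then counted on 4× images. Relative viability is the nuclei count in treated wells divided by that in vehicle wells. Values are medians of duplicate plates.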
# Temozolomide + Lapatinib = compound: Cn1nnc2c(C(N)=O)ncn2c1=O [Temozolomide] + CS(=O)(=O)CCNCc1ccc(-c2ccc3ncnc(Nc4ccc(OCc5cccc(F)c5)c(Cl)c4)c3c2)o1 [Lapatinib] (partner 2 µM)
# Method in brief: as §1
# Temozolomide + OSI-027 = compound: Cn1nnc2c(C(N)=O)ncn2c1=O [Temozolomide] + COc1cccc2cc(-c3nc([C@H]4CC[C@H](C(=O)O)CC4)n4ncnc(N)c34)[nH]c12 [OSI-027] (partner 0.5 µM)
# Method in brief: as §1
# [1] = compound: Cn1nnc2c(C(N)=O)ncn2c1=O [Temozolomide] + Nc1nc2[nH]cc(CCc3ccc(C(=O)N[C@@H](CCC(=O)O)C(=O)O)cc3)c2c(=O)[nH]1 [Pemetrexed] (partner 0.2 µM)
# Method in brief: as §1
Cell Line,relative viability (AZD5582 + Foretinib; first compound 0.001581 µM),relative viability (AZD5582 + Foretinib; first compound 0.005 µM),relative viability (AZD5582 + Foretinib; first compound 0.01581 µM),relative viability (AZD5582 + Foretinib; first compound 0.05 µM),relative viability (Temozolomide + Lapatinib; first compound 0.2 µM),relative viability (Temozolomide + Lapatinib; first compound 0.6325 µM),relative viability (Temozolomide + Lapatinib; first compound 2 µM),relative viability (Temozolomide + Lapatinib; first compound 6.325 µM),relative viability (Temozolomide + Lapatinib; first compound 20 µM),relative viability (Temozolomide + OSI-027; first compound 0.2 µM),relative viability (Temozolomide + OSI-027; first compound 0.6325 µM),relative viability (Temozolomide + OSI-027; first compound 2 µM),relative viability (Temozolomide + OSI-027; first compound 6.325 µM),relative viability (Temozolomide + OSI-027; first compound 20 µM),relative viability ([1]; first compound 0.2 µM),relative viability ([1]; first compound 0.6325 µM),relative viability ([1]; first compound 2 µM),relative viability ([1]; first compound 6.325 µM),relative viability ([1]; first compound 20 µM)
PC-3 [JPC-3],0.866,0.809,0.96,0.488,0.504,0.466,0.511,0.461,0.437,0.738,0.78,0.843,0.749,0.269,1.22,1.13,1.16,1.06,0.458
PC-14,0.903,1.06,0.938,0.945,0.318,0.321,0.396,0.343,0.297,1.12,0.811,0.855,0.741,0.159,0.138,0.12,0.138,0.145,0.14
RERF-LC-KJ,0.758,0.836,0.855,0.924,0.819,0.922,0.909,0.767,0.846,0.495,0.6,0.597,0.53,0.554,0.484,0.507,0.486,0.464,0.461
